Measured values from patent publication US11919865B2, “Processes for preparing AG-10, its intermediates, and salts thereof” (EIDOS THERAPEUTICS, INC., priority 2017, dated 2024).
Where “and” joins values, the source holds several entries; their conditions need not be identical. Equal values may be shown once.

How the values were obtained:
[1] = Bioavailability of AG-10 in male and female dogs at different oral dosing levels; format: in vivo; settings: oral 5 mg/kg or 20 mg/kg, plasma 2-24 hours
Protocol: The mean plasma concentration of AG-10 was measured from 2-24 hours after oral dosing with 5 mg/kg or 20 mg/kg of AG-10. The calculated pharmacokinetic data is shown in FIG. 3B, FIG. 3D and FIG. 3F.

[2] = Bioavailability of AG-10, mean plasma concentration after intravenous and oral dosing; format: in vivo; settings: 1 mg/kg intravenously and 5 mg/kg orally, plasma 0-24 hours
Protocol: The mean plasma concentration of AG-10 was measured from 0-24 hours after dosing with 1 mg/kg of AG-10 intravenously and 5 mg/kg of AG-10 orally. The calculated pharmacokinetic data is shown in FIG. 2B, FIG. 2D, and FIG. 2F.

[3] = Oral dosing of AG-10 forms, plasma pharmacokinetics by LC-MS/MS; format: in vivo, Dog; settings: for Exposure (0-24 h) / Cmax: dog
Protocol: (§1) Rats or Dogs were orally dosed with the zwitterion, Na salt, or HCl salt for of AG-10. Plasma samples from each rat/dog, as applicable, were measured between 0 and up to 96 hours after dosing with the specified form of AG-10. After isolation from the animal, each sample (50 μL) was protein precipitated by adding 500 μL 0.1% formamide in acetonitrile to the sample. After addition for the formamide solution, the sample was vortexed and centrifuging at 1400 rpm for 15 min at 4° C. 100 μL of the supernatant was removed and diluted with 100 μL water. 5 μL of the diluted sample was injected for LC-MS/MS analysis.

[4] = as above; format: in vivo, Rat
Protocol: as §1

[5] = Intravenous dosing of AG-10 forms, plasma pharmacokinetics by LC-MS/MS; format: in vivo
Protocol: as §1, with “Mice, Rats” for “Rats”, “were intravenously” for “were orally”, “each mouse/rat/dog,” for “each rat/dog,”, “and 24” for “and up to 96”, “diluted samples” for “diluted sample”

[6] = as above; settings: in vivo, dog, 1 mg/kg, the Cmax reported is an extrapolated C0
Protocol: as §1, with “Mice, Rats” for “Rats”, “were intravenously” for “were orally”, “each mouse/rat/dog,” for “each rat/dog,”, “and 24” for “and up to 96”, “diluted samples” for “diluted sample”

Which results are given for Cc1n[nH]c(C)c1CCCOc1cc(C(=O)O)ccc1F [AG-10, 3-(3-(3,5-dimethyl-1H-pyrazol-4-yl)propoxy)-4-fluorobenzoic acid]?
Bioavailability [1]: high bioavailability; Bioavailability ([2]; dogs): high bioavailability; Bioavailability ([2]; mice): high bioavailability; Bioavailability ([2]; rats): high bioavailability

Which “Exposure (0-24 h)” value ([3]; 25 mg/kg) does the source give for Cc1n[nH]c(C)c1CCCOc1cc(C(=O)O)ccc1F [Zwitterion, 3-(3-(3,5-dimethyl-1H-pyrazol-4-yl)propoxy)-4-fluorobenzoic acid] here?
The value was 89,786 ng · h/mL.

What about the Cmax ([3]; plasma, 25 mg/kg) of the same compound?
Its Cmax is 17500 ng/mL and 60 µM.

What about the Cmax ([4]; plasma, rat, 200 mg/kg) of the same compound?
Its Cmax is 26400 ng/mL and 90.3 µM.

And the Cmax ([5]; mouse, 3 mg/kg)?
Its Cmax is 4480 ng/mL and 15.4 µM.

And the Cmax ([5]; plasma, rat, 3.43 mg/kg, read-out: Cmax)?
The Cmax was 3090 ng/mL and 10.6 µM.

Which “Exposure (0-24 h)” value ([3]; 20 mg/kg) does the source give for Cc1n[nH]c(C)c1CCCOc1cc(C(=O)O)ccc1F.Cl [HCl salt, 3-[3-(3,5-dimethyl-1H-pyrazol-4-yl)propoxy]-4-fluorobenzoic acid hydrochloride salt] here?
Its value is 69,088 ng · h/mL.

What about the “Exposure (0-24 h)” value ([3]; 25 mg/kg) of the same compound?
Its value is 128,374 ng · h/mL.

What about the “Exposure (0-24 h)” value ([3]; 60 mg/kg) of the same compound?
Its value is 155,814 ng · h/mL.

And the “Exposure (0-24 h)” value ([3]; 200 mg/kg)?
Its value is 1,020,640 ng · h/mL.

And the “Cmax values as compared to the zwitterion” value ([3]; dogs, Table 3 row 6 vs row 4)?
The value was “surprising and significant improvement in Cmax values”.

What about the Cmax ([3]; in vivo, 20 mg/kg) of the same compound?
The Cmax was 16100 ng/mL and 55.1 µM.

And the Cmax ([3]; in vivo, 25 mg/kg)?
Its Cmax is 25100 ng/mL and 85.8 µM.

And the Cmax ([3]; in vivo, 60 mg/kg)?
Its Cmax is 41800 ng/mL and 143 µM.

What about the Cmax ([3]; in vivo, 200 mg/kg) of the same compound?
The Cmax was 154000 ng/mL and 528 µM.

And the Cmax [6]?
The Cmax was 5960 ng/mL and 20.4 µM.

What about the Cmax ([4]; in vivo, rat, 200 mg/kg) of the same compound?
The Cmax was 216000 ng/mL and 741 µM.

What about the “Exposure (0-24 h)” value ([4]; rat, 200 mg/kg) of the same compound?
The value was 395,503 ng · h/mL.

And the “Cmax values as compared to the zwitterion and the Na salt” value ([4]; rats, Table 3 row 3 vs row 1)?
The value was “surprising and significant improvement in Cmax values”.

And the Cmax ([5]; in vivo, rat, 1 mg/kg, the Cmax reported is an extrapolated C0, read-out: Cmax (extrapolated C0))?
The Cmax was 4280 ng/mL and 14.6 µM.
